Some results are limits rather than exact numbers.

Experimental findings from US20190100534A1, “Cephem Compounds with Latent Reactive Groups” (Gladius Pharmaceuticals, Inc., priority 2017, published 2019) are described below.

Assay in all cases: MIC determination, isogenic E. coli strains
What all share (format): cell-based

One assay relates to E. coli J53 Alone. Particulars: for MIC: Escherichia coli, J53ALONE, 18 h, read-out: Mimimum Inhibitory Concentrations, J53 Alone; for Mimimum Inhibitory Concentrations, J53 Alone: CAMH broth, 20 μM Apo-Transferrin, 37° C., 18 hours. On the procedure:
(§1) Sterile technique was used throughout these experiments. Suspensions of organisms were removed from storage (−80° C.) and partially thawed. Partially thawed organisms (1 μL) were inoculated into 3 mL sterile LB Broth in a sterile culture tube and capped, then cultured at 37° C. with shaking for 4-5 hours until the optical density at 600 nm (OD600) was greater than 0.1 on a single beam spectrophotometer.
(§2) The concentration of organisms was adjusted to 0.08-0.1 OD600 (0.5 McFarland units) by dilution with sterile cation-adjusted Meuller-Hinton (CAMH) broth. The suspensions were used within 30 minutes of preparation.
(§3) A stock solution was made of each test compound by measuring 6.4 mg of the compound on an analytical balance and dissolving it in DMSO (1 mL) to get a transparent solution. The solutions were stored at −20° C. and thawed prior to use.
(§4) Sterile CAMH broth (200 μL) containing 20 μM Apo-Transferrin was pipetted into the first row of 8 columns of a sterile, round-bottomed, transparent, 96-well microplate using an 8-channel pipette equipped with sterile tips. One hundred μL was pipetted into the wells of the remaining 11 rows.
(§5) With an 8-channel pipette equipped with sterile tips, 100 μL of the first row solution was transferred to the second row and mixed. The process was repeated for the second to third rows and continued through row 11. One hundred μL from row 11 was removed and discarded so that all 12 rows contained 100 μL. Row 12 contained no compound and rows 1-11 contained 64, 32, 16, 8, 4, 2, 1, 0.5, 0.25, 0.125, […] of a given compound.
(§6) Inoculant suspensions (0.5 μL) were added to the 12 wells of each column. The plates were then covered and incubated at 37° C. overnight for 18 hours.
(§7) For each organism the MIC was determined by identifying the transparent well with the lowest test compound concentration.
(§8) The gene sequence for each beta-lactamase enzyme was synthesized and inserted into the pBC-SK(+) plasmid by GenScript, a commercial service. E. coli J53 was transformed with each plasmid via electroporation and resistant transformants were selected on agar plates containing 50 micrograms/mL ampicillin. The selected transformants were stored at −80 degrees C. in 20% glycerol.

Assay [1] deals with Isogenic E. coli J58 strain carrying DHA-1. Particulars: for MIC: Escherichia coli, 18 h, read-out: Mimimum Inhibitory Concentrations, DHA-1; for Mimimum Inhibitory Concentrations, DHA-1: isogenic E. coli strain, CAMH broth, 20 μM Apo-Transferrin, 37° C., 18 hours. On the procedure: as §1, §2, §3, §4, §5, §6, §7, §8
For assay [2], the system named is Isogenic E. coli J58 strain carrying TEM-26. Particulars: for MIC: Escherichia coli, 18 h, read-out: Mimimum Inhibitory Concentrations, TEM-26; for Mimimum Inhibitory Concentrations, TEM-26: isogenic E. coli strain, CAMH broth, 20 μM Apo-Transferrin, 37° C., 18 hours. On the procedure: as §1, §2, §3, §4, §5, §6, §7
TEM-26 (Group 2be beta-lactamase, hydrolyzes extended spectrum cephalosporins and monobactams), [25];
as §8

The test system of assay [3] is Isogenic E. coli J58 strain carrying SHV-1. As to conditions: for MIC: Escherichia coli, 18 h, read-out: Mimimum Inhibitory Concentrations, SHV-1; for Mimimum Inhibitory Concentrations, SHV-1: isogenic E. coli strain, CAMH broth, 20 μM Apo-Transferrin, 37° C., 18 hours. On the procedure: as §1, §2, §3, §4, §5, §6, §7
SHV-1 (Class A, Group 2b beta-lactamase, hydrolyzes penicillins and early cephalosporins);
as §8

The subject of assay [4] is Isogenic E. coli J58 strain carrying CTX-M-14. Particulars: for MIC: Escherichia coli, 18 h, read-out: Mimimum Inhibitory Concentrations, CTX-M-14; for Mimimum Inhibitory Concentrations, CTX-M-14: isogenic E. coli strain, CAMH broth, 20 μM Apo-Transferrin, 37° C., 18 hours. On the procedure:
as §1, §2, §3, §4, §5, §6, §7
(§9) CTX-M-14 and CTX-M-15 (Class A, Group 2be beta-lactamases, hydrolyzes extended spectrum cephalosporins and monobactams);
as §8

The subject of assay [5] is Isogenic E. coli J58 strain carrying CTX-M-15. Particulars: for MIC: Escherichia coli, 18 h, read-out: Mimimum Inhibitory Concentrations, CTX-M-15; for Mimimum Inhibitory Concentrations, CTX-M-15: isogenic E. coli strain, CAMH broth, 20 μM Apo-Transferrin, 37° C., 18 hours. On the procedure: as §1, §2, §3, §4, §5, §6, §7, §9, §8
Assay [6] concerns Isogenic E. coli J58 strain carrying KPC-2. Particulars: for MIC: Escherichia coli, 18 h, read-out: Mimimum Inhibitory Concentrations, KPC-2; for Mimimum Inhibitory Concentrations, KPC-2: isogenic E. coli strain, CAMH broth, 20 μM Apo-Transferrin, 37° C., 18 hours. On the procedure: as §1, §2, §3, §4, §5, §6, §7
(§10) KPC-2 and KPC-3 (Class A, Group 2f, carbapenemases);
as §8

In assay [7] the test system is Isogenic E. coli J58 strain carrying KPC-3. Particulars: for MIC: Escherichia coli, 18 h, read-out: Mimimum Inhibitory Concentrations, KPC-3; for Mimimum Inhibitory Concentrations, KPC-3: isogenic E. coli strain, CAMH broth, 20 μM Apo-Transferrin, 37° C., 18 hours. On the procedure: as §1, §2, §3, §4, §5, §6, §7, §10, §8
Assay [8] relates to Isogenic E. coli J58 strain carrying NDM-1. As to conditions: for MIC: Escherichia coli, 18 h, read-out: Mimimum Inhibitory Concentrations, NDM-1; for Mimimum Inhibitory Concentrations, NDM-1: isogenic E. coli strain, CAMH broth, 20 μM Apo-Transferrin, 37° C., 18 hours. On the procedure: as §1, §2, §3, §4, §5, §6, §7
NDM-1 (Group 3a carbapenemase, broad spectrum divalent Zn^++ metallo-Beta-Lactamase);
as §8

Assay [9] has as its system Isogenic E. coli J58 strain carrying VIM-2. Particulars: for MIC: Escherichia coli, 18 h, read-out: Mimimum Inhibitory Concentrations, VIM-2; for Mimimum Inhibitory Concentrations, VIM-2: isogenic E. coli strain, CAMH broth, 20 μM Apo-Transferrin, 37° C., 18 hours. On the procedure:
as §1, §2, §3, §4, §5, §6, §7
VIM-2 (Group 3a carbapenemase, metallo-beta-lactamase); and
as §8

Assay [10] concerns Isogenic E. coli J58 strain carrying IMP-1. As to conditions: for MIC: Escherichia coli, 18 h, read-out: Mimimum Inhibitory Concentrations, IMP-1; for Mimimum Inhibitory Concentrations, IMP-1: isogenic E. coli strain, CAMH broth, 20 μM Apo-Transferrin, 37° C., 18 hours. On the procedure: as §1, §2, §3, §4, §5, §6, §7
IMP-1 (Group 3a carbapenemase, metallo-beta-Lactamase).
as §8

On to `CC(C)(O/N=C(\C(=O)N[C@@H]1C(=O)N2C(C(=O)O)=C(C=Cc3ccc(C[N+](C)(C)CCc4ccc(O)c(O)c4)cc3)CS[C@H]12)c1csc(N)n1)C(=O)O` (mixture of isomers) [Compound 440, N-(4-((E/Z)-2-((6R,7R)-7-((Z)-2-(2-aminothiazol-4-yl)-2-(((2-carboxypropan-2-yl)oxy)imino)acetamido)-2-carboxy-8-oxo-5-thia-1-azabicyclo[4.2.0]oct-2-en-3-yl)vinyl)benzyl)-2-(3,4-dihydroxyphenyl)-N,N-dimethylethan-1-aminium], for which the MIC with E. coli J53 Alone was 0.25 mg/L; in assay [1] it was 0.25 mg/L; in assay [2] it was 1 mg/L; in assay [3], 1 mg/L; in assay [4], 2 mg/L; in assay [5] it was 0.25 mg/L. Also, the MIC was 16 mg/L in assay [6]; 4 mg/L in assay [7]; over 64 mg/L in assay [8]; 0.25 mg/L in assay [9]; 0.13 mg/L in assay [10]. Also, in the assay with E. coli J53 Alone (Table 4-2), the “Mimimum Inhibitory Concentrations, J53 Alone” value is on record as 0.25 microgram/mL. The “MICs for an E. coli strain carrying the gene for carbapenemase IMP-1, in words” value in assay [10] (review of Tables 4-1 and 4-2) is on record as “low microgram/mL MICs”.

As to `CO/N=C(\C(=O)N[C@@H]1C(=O)N2C(C(=O)O)=C(C=Cc3ccc(C[n+]4ccc(OC)c(OC)c4)cc3[N+](=O)[O-])CS[C@H]12)c1csc(N)n1` (mixture of isomers) [Compound 392, 1-(4-((E/Z)-2-((6R,7R)-7-((Z)-2-(2-aminothiazol-4-yl)-2-(methoxyimino)acetamido)-2-carboxy-8-oxo-5-thia-1-azabicyclo[4.2.0]oct-2-en-3-yl)vinyl)-3-nitrobenzyl)-3,4-dimethoxypyridin-1-ium], the “Mimimum Inhibitory Concentrations, J53 Alone” value in the assay with E. coli J53 Alone (Table 4-1) and in the assay on E. coli J53 Alone (Table 4-2) was 64 microgram/mL each time. In assay [1], the “Mimimum Inhibitory Concentrations, DHA-1” value is over 64 microgram/mL. For the same compound, in [2], the “Mimimum Inhibitory Concentrations, TEM-26” value stood at 32 microgram/mL. Further, in assay [3], the “Mimimum Inhibitory Concentrations, SHV-1” value is over 64 microgram/mL. In addition, in assay [4], the “Mimimum Inhibitory Concentrations, CTX-M-14” value is over 64 microgram/mL. In assay [5], the “Mimimum Inhibitory Concentrations, CTX-M-15” value was over 64 microgram/mL. The “Mimimum Inhibitory Concentrations, KPC-2” value in assay [6] is over 64 microgram/mL. Moreover, the “Mimimum Inhibitory Concentrations, KPC-3” value in assay [7] is reported as over 64 microgram/mL. Besides, the “Mimimum Inhibitory Concentrations, NDM-1” value in assay [8] is reported as over 64 microgram/mL. Moreover, the “Mimimum Inhibitory Concentrations, VIM-2” value in assay [9] is reported as over 64 microgram/mL. Besides, the “Mimimum Inhibitory Concentrations, IMP-1” value in assay [10] is over 64 microgram/mL.

Take `CC(C)(O/N=C(\C(=O)N[C@@H]1C(=O)N2C(C(=O)O)=C(C=Cc3ccc(C[N+]4(C5CCC5)CCc5ccc(O)c(O)c5C4)cc3)CS[C@H]12)c1csc(N)n1)C(=O)O` (mixture of isomers) [Compound 444, 2-(4-((E/Z)-2-((6R,7R)-7-((Z)-2-(2-aminothiazol-4-yl)-2-(((2-carboxypropan-2-yl)oxy)imino)acetamido)-2-carboxy-8-oxo-5-thia-1-azabicyclo[4.2.0]oct-2-en-3-yl)vinyl)benzyl)-2-cyclobutyl-7,8-dihydroxy-1,2,3,4-tetrahydroisoquinolin-2-ium]: the “Mimimum Inhibitory Concentrations, J53 Alone” value in the assay with E. coli J53 Alone (Table 4-1) and in the assay on E. coli J53 Alone (Table 4-2) was 0.5 microgram/mL throughout. The “Mimimum Inhibitory Concentrations, DHA-1” value in assay [1] was determined as 1 microgram/mL. For the same compound, the “Mimimum Inhibitory Concentrations, TEM-26” value in assay [2] is 0.25 microgram/mL. Besides, in assay [3], the “Mimimum Inhibitory Concentrations, SHV-1” value is on record as 1 microgram/mL. In assay [4], the “Mimimum Inhibitory Concentrations, CTX-M-14” value worked out at 0.25 microgram/mL. Also, in assay [5], the “Mimimum Inhibitory Concentrations, CTX-M-15” value was 1 microgram/mL. Further, the “Mimimum Inhibitory Concentrations, KPC-2” value in assay [6] was found to be 8 microgram/mL. Besides, the “Mimimum Inhibitory Concentrations, KPC-3” value in assay [7] is 2 microgram/mL. For the same compound, the “Mimimum Inhibitory Concentrations, NDM-1” value in assay [8] came out at 32 microgram/mL. Also, the “MICs for an E. coli strain carrying the gene for NDM-1, in words” value in assay [8] (review of Tables 4-1 and 4-2) is reported as “lower MICS compared to other compounds tested”. For the same compound, the “Mimimum Inhibitory Concentrations, VIM-2” value in assay [9] is 0.5 microgram/mL. Besides, the “Mimimum Inhibitory Concentrations, IMP-1” value in assay [10] stood at 0.5 microgram/mL.

With `CC(C)(O/N=C(\C(=O)N[C@@H]1C(=O)N2C(C(=O)O)=C(/C=C/c3ccc(C[n+]4ccn(-c5ccc(O)c(O)c5)c4)cc3)CS[C@H]12)c1csc(N)n1)C(=O)O` [Compound 414, 3-(4-((E)-2-((6R,7R)-7-((Z)-2-(2-aminothiazol-4-yl)-2-(((2-carboxypropan-2-yl)oxy)imino)acetamido)-2-carboxy-8-oxo-5-thia-1-azabicyclo[4.2.0]oct-2-en-3-yl)vinyl)benzyl)-1-(3,4-dihydroxyphenyl)-1H-imidazol-3-ium], the MIC was 0.25 mg/L in the assay with E. coli J53 Alone; 0.5 mg/L in assay [1]; 1 mg/L in [2]; 1 mg/L in [3]; 2 mg/L in assay [4]; 1 mg/L in [5]. Further, the MIC in assay [6] was 8 mg/L; in [7] it was 4 mg/L; in assay [8] it was over 64 mg/L; in assay [9], 1 mg/L; in assay [10], 8 mg/L. Moreover, in the assay on E. coli J53 Alone (Table 4-2), the “Mimimum Inhibitory Concentrations, J53 Alone” value came to 0.25 microgram/mL.

Turning to `CC(C)(O/N=C(\C(=O)N[C@@H]1C(=O)N2C(C(=O)O)=C(C=Cc3ccc(C[N+]4(C)CCc5cc(O)c(O)cc5C4)cc3[N+](=O)[O-])CS[C@H]12)c1csc(N)n1)C(=O)O` (mixture of isomers) [Compound 445, 2-(4-((E/Z)-2-((6R,7R)-7-((Z)-2-(2-aminothiazol-4-yl)-2-(((2-carboxypropan-2-yl)oxy)imino)acetamido)-2-carboxy-8-oxo-5-thia-1-azabicyclo[4.2.0]oct-2-en-3-yl)vinyl)-3-nitrobenzyl)-6,7-dihydroxy-2-methyl-1,2,3,4-tetrahydroisoquinolin-2-ium], the MIC in the assay on E. coli J53 Alone amounted to 1 mg/L; in assay [1] it was 1 mg/L; in assay [2] it was 1 mg/L; in assay [3] it was 1 mg/L; in [4], 4 mg/L; in assay [5] it was 4 mg/L. The MIC is 64 mg/L in assay [6]; 16 mg/L in assay [7]; over 64 mg/L in assay [8]; 0.25 mg/L in assay [9]; 1 mg/L in assay [10]. Moreover, the “Mimimum Inhibitory Concentrations, J53 Alone” value in the assay with E. coli J53 Alone (Table 4-2) worked out at 1 microgram/mL.
